Measurements as given in patent US9428510B2, “Derivatives of azaindazole or diazaindazole type for treating a cancer overexpressing Trk” (PIERRE FABRE MEDICAMENT, priority 2012, dated 2016).
Each block holds one compound with its values, some of them ahead of it.

Legend:
KM-12 colon cancer cells = assay: Antiproliferative activity against human colon cancer cells (KM-12), ATPlite; type: cell-based; conditions: KM12, KM-12 cells, 72 hours, read-out: Cell proliferation inhibition (KM-12) IC50
Method: The antiproliferative activities of the compounds according to the invention were measured by the ATPlite technique (Perkin Elmer).
Adherent human colon cancer cells (KM-12 colon cancer cells are TrkA-dependent) are inoculated in 96-well plates (3500 cells/well) on day 0, at a concentration compatible with logarithmic growth for the 72 hours required for the evaluation of the compounds. All of the cells are treated on day 1 and then placed in an incubator at 37° C. under an atmosphere of 5% CO2. Cell viability is evaluated on day 4 by assaying released ATP, which is characteristic of viable cells. IC50s are determined by nonlinear regression on the basis of a sigmoidal dose/response relationship model, wherein the Hill coefficient is left variable, carried out on the GraphPad software package according to the algorithm provided.

TrkB = molecular target: T1, TrkB (Homo sapiens, UniProt Q16620); assay: Test for measuring inhibition of TrkB kinase (Millipore or Kinome Scan, manufacturer's protocols); type: biochemical; conditions: 10 nM compound
T1 construct: purchased Millipore or Kinome Scan (DiscoverX)
T1 sequence (Q16620 32-822): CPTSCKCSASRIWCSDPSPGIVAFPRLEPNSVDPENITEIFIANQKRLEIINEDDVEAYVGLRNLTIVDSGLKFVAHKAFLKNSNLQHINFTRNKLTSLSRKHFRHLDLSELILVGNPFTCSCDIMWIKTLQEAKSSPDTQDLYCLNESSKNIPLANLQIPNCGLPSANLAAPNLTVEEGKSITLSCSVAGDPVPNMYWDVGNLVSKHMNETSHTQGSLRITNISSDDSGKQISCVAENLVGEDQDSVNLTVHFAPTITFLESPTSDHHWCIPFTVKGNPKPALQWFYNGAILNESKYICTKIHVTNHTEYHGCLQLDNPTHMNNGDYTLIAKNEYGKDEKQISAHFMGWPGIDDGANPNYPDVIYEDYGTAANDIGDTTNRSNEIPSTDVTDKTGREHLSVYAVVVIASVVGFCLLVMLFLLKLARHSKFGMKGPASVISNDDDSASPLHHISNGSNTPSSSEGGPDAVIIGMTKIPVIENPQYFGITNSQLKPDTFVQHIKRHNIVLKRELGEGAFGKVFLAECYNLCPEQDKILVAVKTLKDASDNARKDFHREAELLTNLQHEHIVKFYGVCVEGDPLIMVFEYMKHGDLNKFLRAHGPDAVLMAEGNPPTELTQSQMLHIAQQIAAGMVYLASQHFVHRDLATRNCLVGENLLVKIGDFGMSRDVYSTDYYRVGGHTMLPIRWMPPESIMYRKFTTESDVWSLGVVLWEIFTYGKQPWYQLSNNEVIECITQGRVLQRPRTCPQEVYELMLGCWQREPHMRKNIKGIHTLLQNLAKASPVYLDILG
From the text: (§1) These kinases are produced by Millipore or Kinome Scan (DiscoverX) and are screened according to the manufacturer's protocols.

TrkA = molecular target: T2, TrkA (Homo sapiens, UniProt P04629); assay: Test for measuring inhibition of TrkA kinase (Millipore or Kinome Scan, manufacturer's protocols); type: biochemical; conditions: 10 nM compound
T2 construct: purchased Millipore or Kinome Scan (DiscoverX)
T2 sequence (P04629 33-796): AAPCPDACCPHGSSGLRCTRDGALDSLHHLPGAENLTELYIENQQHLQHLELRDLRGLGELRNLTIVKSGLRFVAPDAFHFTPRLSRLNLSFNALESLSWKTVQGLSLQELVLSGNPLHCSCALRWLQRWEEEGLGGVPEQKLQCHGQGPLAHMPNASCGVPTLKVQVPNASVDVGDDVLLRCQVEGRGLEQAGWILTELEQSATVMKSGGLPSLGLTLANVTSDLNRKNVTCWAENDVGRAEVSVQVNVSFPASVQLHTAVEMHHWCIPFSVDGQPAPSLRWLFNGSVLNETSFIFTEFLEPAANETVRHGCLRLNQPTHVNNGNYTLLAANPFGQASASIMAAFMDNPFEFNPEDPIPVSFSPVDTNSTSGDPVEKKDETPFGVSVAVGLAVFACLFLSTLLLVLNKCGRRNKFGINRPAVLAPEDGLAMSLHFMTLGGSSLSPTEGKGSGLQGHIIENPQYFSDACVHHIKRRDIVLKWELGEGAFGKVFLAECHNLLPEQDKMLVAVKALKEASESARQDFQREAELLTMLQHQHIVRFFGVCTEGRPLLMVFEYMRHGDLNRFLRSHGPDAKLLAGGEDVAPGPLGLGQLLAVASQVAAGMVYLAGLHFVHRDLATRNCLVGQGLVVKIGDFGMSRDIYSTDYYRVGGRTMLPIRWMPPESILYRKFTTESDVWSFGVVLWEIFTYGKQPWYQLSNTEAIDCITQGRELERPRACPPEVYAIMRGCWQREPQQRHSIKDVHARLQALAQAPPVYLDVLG
From the text: as §1

[1] = system: KM-12 experimental tumor model; assay: In vivo antitumor activity against the KM-12 experimental tumor model; conditions: oral route, (q1d6)x2 weeks schedule
From the text: This activity is noticeable since colon cancer is overall poor responsive to chemotherapy.

TrkB (or NTRK2) = molecular target: T3, TrkB (or NTRK2) (Homo sapiens, UniProt Q16620); assay: In vitro kinase glo plus-based kinase assay, TrkB; type: biochemical; conditions: N=36, 40 μM ATP
T3 construct: using the soluble intracellular segment of theses receptors, containing the kinase activity; purchased Invitrogen
T3 sequence (Q16620 455-822 limits assumed): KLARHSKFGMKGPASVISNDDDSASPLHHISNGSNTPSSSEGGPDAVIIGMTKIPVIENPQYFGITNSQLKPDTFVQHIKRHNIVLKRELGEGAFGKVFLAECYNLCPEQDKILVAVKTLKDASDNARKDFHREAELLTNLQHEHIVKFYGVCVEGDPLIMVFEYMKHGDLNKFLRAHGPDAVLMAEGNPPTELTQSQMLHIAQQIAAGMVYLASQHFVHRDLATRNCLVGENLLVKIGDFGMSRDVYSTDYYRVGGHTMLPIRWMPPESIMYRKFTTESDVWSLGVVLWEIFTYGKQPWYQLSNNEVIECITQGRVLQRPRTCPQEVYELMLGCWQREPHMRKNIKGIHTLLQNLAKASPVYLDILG
Method: An in vitro kinase glo plus-based kinase assay (Promega) was developed in a 96 wells assay plate format to assess the inhibiting properties of compounds on tropomyosin related kinases (Trk) receptors, using the soluble intracellular segment of theses receptors, containing the kinase activity (TrkA (or NTRK1; 400 ng/well; […] Invitrogen)). […] Plates were removed from incubator, and 50 μl of kinase-glo plus was added to each well, followed by a 10 minute incubation at room temperature. The luciferase-induced luminescence, which is proportional to the ATP remaining in the well, was measured on a luminometer. Controls on each plates included wells with the kinase alone (maximal ATP consumption, or 0% inhibition), wells without the kinase (maximal ATP signal or 100% inhibition), and wells with 20 μM staurosporine (positive control of inhibition). […] N=42; […]

IC50 (KM-12 colon cancer cells): 2.2 nM
SMILES: CN1CCN(c2ccc(C(=O)Nc3n[nH]c4nc(N)c(Sc5cc(F)cc(F)c5)cc34)c(NC3CCOCC3)c2)CC1 [Example 14-11, N-(6-amino-5-(3,5-difluorophenylthio)-1H-pyrazolo[3,4-b]pyridin-3-yl)-4-(4-methylpiperazin-1-yl)-2-(tetrahydro-2H-pyran-4-ylamino)benzamide]

Enzymatic inhibition at 10 nM (%) TrkB (TrkB): 98%
Enzymatic inhibition at 10 nM (%) TrkA (TrkA): 55%
SMILES: CN1CCN(c2ccc(C(=O)Nc3n[nH]c4ncc(Cc5cc(F)cc(F)c5)cc34)c(NC3CCOCC3)c2)CC1 [Example 30-9, N-(5-(3,5-difluorobenzyl)-1H-pyrazolo[3,4-b]pyridin-3-yl)-4-(4-methylpiperazin-1-yl)-2-(tetrahydro-2H-pyran-4-ylamino)benzamidc]

IC50 (KM-12 colon cancer cells): 36 nM
SMILES: CN1CCN(c2ccc(C(=O)Nc3n[nH]c4ncc(Sc5cc(F)cc(F)c5)cc34)c(NC3CCOCC3)c2)CC1 [Example 30, N-(5-(3,5-difluorophenylthio)-1-H-pyrazolo[3,4-b]pyridine-3-yl)-4-(4-methylpiperazine-1-yl)-2-(tetrahydro-2H-pyran-4-ylamino)benzamide]
adverse effects ([1]; 120 and 240 mg/kg): without any adverse effects
tumor growth inhibition ([1]; recorded at 120 and 240 mg/kg, lasts one week after the end of treatment): up to 96%

SMILES: COC(=O)[C@@]1(O)C[C@H]2O[C@]1(C)n1c3ccccc3c3c4c(c5c6ccccc6n2c5c31)C(=O)NC4 [Example K252a, K252a]
IC50 (TrkB (or NTRK2)): 74 nM
pIC50 on TrkB (TrkB (or NTRK2); mean±SD): 7.16±0.18
